Laboratory results: patent US20250136568A1, “FUSED HETEROCYCLIC COMPOUNDS AS PI3KALPHA INHIBITORS” (Nanjing Zenshine Pharmaceuticals Co., Ltd., priority 2021, published 2025)
Like-named read-outs stand apart in the source and are kept apart here.

What was measured:
[1] = system: PI3Kα H1047R mutation cell line T-47D; assay: Cell Proliferation IC50 Assay (CellTiter-Glo), T-47D; type: cell-based; conditions: Homo sapiens, T47D (H1047R), 72 hours, CellTiter-Glo, read-out: IC50 (μM) T47D
Source text: (§1) PI3Kα H1047R mutation cell line T-47D and MDA-MB-453, E545K mutation cell line MDA-MB-361 and PI3Kα wide type cell line SK-BR-3 were purchased from Cobioer Biotech (cat. no CBP60397, CBP60386, CBP60383 and CBP60413 respectively). The CellTiter-Glo Direct Cell Proliferation Assay Kit was purchased from Prornega (cat. No. G7573)
(§2) For cell proliferation assay in each cell line: • a. Prepare complete medium (R PMI 1640, DMEM or McCoys): Add FBS and appropriate additives according to the information sheet provided by the vendor. Mix gently. • b. Prepare single cell suspension and count the cell numbers and adjust cells to appropriate density. • c. Add 80 μL of cell suspension to 96-well opaque-walled clear bottom plates according to the planned plate layout and place the plates in the CO2 incubator overnight. • d. Prepare intermediate plate: 10 μl of diluted test compounds or staurosporine solution (200×) is added to a 96 deep well plate. Then 390 μl of culture medium without FBS is added to the respective wells. • e. Transfer 20 μL of the solutions from the above intermediate plate to the wells of the plate prepared containing 80 μL of the culture medium and cells. The total dilution is 200 folds. • f. The cells were then incubated at 5% CO2, 37° C. for 72 hours. • g. Equilibrate the plate and its contents to room temperature for approximately 30 minutes. • h. Add 100 μL of CellTiter-Glo reagent to the assay plate • i. Mix contents for 10 minutes on an orbital shaker to induce cell lysis. • j. Allow the plate to incubate at room temperature for 10 minutes to stabilize luminescent signal, • k. Paste the clear bottom with white back seal and record luminescence with Varioskan LUX plate reader.
(§3) Inhibition % and IC50 value were calculated by the formula described below: […]

[2] = system: PI3Kα wide type cell line SK-BR-3; assay: Cell Proliferation IC50 Assay (CellTiter-Glo), SK-BR-3; type: cell-based; conditions: Homo sapiens; SK-BR-3 (PI3Kα wild type), 72 hours, CellTiter-Glo; read-out: IC50 (μM) SK-BR-3
Source text: as §1, §2, §3

| Structure (SMILES) | IC50 ([1]; T47D, 72 h) | IC50 [2] | IC50 [1] |
| --- | --- | --- | --- |
| Cc1cc(C(C)Nc2ccccc2C(=O)O)c2oc(-c3cc4n(c3)CCN(C)C4=O)c(C)c(=O)c2c1 (stereo not drawn) [Example 72, 2-((1-(3,6-dimethyl-2-(2-methyl-1-oxo-1,2,3,4-tetrahydropyrrolo[1,2-a]pyrazin-7-yl)-4-oxo-4H-chromen-8-yl)ethyl)amino)benzoic acid] | 5.08 µM | > 10 µM |  |
| Cc1cc(C(C)Nc2ccccc2C(=O)O)c2oc(-c3cc4n(n3)CCN(C)C4=O)c(C)c(=O)c2c1 (stereo not drawn) [Example 73, 2-((1-(3,6-dimethyl-2-(5-methyl-4-oxo-4,5,6,7-tetrahydropyrazolo[1,5-a]pyrazin-2-yl)-4-oxo-4H-chromen-8-yl)ethyl)amino)benzoic acid] | 2.01 µM | > 10 µM |  |
| Cc1cc(C(C)Nc2ccccc2C(=O)O)c2oc(-c3cnc4nn(C)cc4c3)cc(=O)c2c1 (stereo not drawn) [Example 82, 2-((1-(6-methyl-2-(2-methyl-2H-pyrazolo[3,4-b]pyridin-5-yl)-4-oxo-41H-chromen-8-yl)ethyl)amino)benzoic acid] | > 10 µM | > 10 µM |  |
| Cc1cc(C(C)Nc2ccccc2C(=O)O)c2oc(-c3cc4cn(C)nc4cn3)cc(=O)c2c1 (stereo not drawn) [Example 83, 2-((1-(6-methyl-2-(2-methyl-2H-pyrazolo[3,4-c]pyridin-5-yl)-4-oxo-41H-chromen-8-yl)ethyl)amino)benzoic acid] |  | > 10 µM | 0.38 µM |
| Cc1cc(C(C)Nc2ccccc2C(=O)O)c2oc(-c3ccc4c(c3)CN(C)C4)cc(=O)c2c1 (stereo not drawn) [Example 94, 2-((1-(6-methyl-2-(2-methylisoindolin-5-yl)-4-oxo-4-chromen-8-yl)ethyl)amino)benzoic acid] | 1.02 µM | > 10 µM |  |
| Cc1cc(C(C)Nc2ccccc2C(=O)O)c2nc(-c3ccc4nn(C)cc4c3)cc(=O)n2c1 (stereo not drawn) [Example 108, 2-((1-(7-methyl-2-(2-methyl-2H-indazol-5-yl)-4-oxo-4H-pyrido[1,2-a]pyrimidin-9-yl)ethyl)amino)benzoic acid] | 0.84 µM | > 10 µM |  |
| Cc1cc(C(C)Nc2cnccc2C(=O)O)c2oc(-c3ccc4nn(C)cc4c3)cc(=O)c2c1 (stereo not drawn) [Example 112, 3-((1-(6-methyl-2-(2-methyl-2H-indazol-5-yl)-4-oxo-4H-chromen-8-yl)ethyl)amino)isonicotinic acid] | > 10 µM | > 10 µM |  |
| Cc1cc(C(C)Nc2ncccc2C(=O)O)c2oc(-c3ccc4nn(C)cc4c3)cc(=O)c2c1 (stereo not drawn) [Example 113, 2-((1-(6-methyl-2-(2-methyl-2H-indazol-5-yl)-4-oxo-4H-chromen-8-yl)ethyl)amino)nicotinic acid] | 0.67 µM | > 10 µM |  |
| Cc1cc(C(C)Nc2cccnc2C(=O)O)c2oc(-c3ccc4nn(C)cc4c3)cc(=O)c2c1 (stereo not drawn) [Example 114, 3-((1-(6-methyl-2-(2-methyl-21-indazol-5-yl)-4-oxo-4H-chromen-8-yl)ethyl)amino)picolinic acid] | 0.46 µM | > 10 µM |  |
| CC(=O)N1CCN(c2ccc(-c3oc4c([C@@H](C)Nc5ccccc5C(=O)O)cc(C)cc4c(=O)c3C)nc2)CC1 [Example 115, (R)-2-((1-(2-(5-(4-acetylpiperazin-1-yl)pyridin-2-yl)-3,6-dimethyl-4-oxo-4H-chromen-8-yl)ethyl)amino)benzoic acid] |  | 3.43 µM | 0.074 µM |
| Cc1cc(C(C)Nc2ccccc2C(=O)O)c2oc(-c3cc4cnccc4[nH]3)cc(=O)c2c1 (stereo not drawn) [Example 116] | 0.97 µM | > 10 µM |  |
| Cc1cc(C(C)Nc2ccccc2C(=O)O)c2oc(-c3ccc4c(=O)n(C)cnc4c3)cc(=O)c2c1 (stereo not drawn) [Example 121, 2-((1-(6-methyl-2-(3-methyl-4-oxo-3,4-dihydroquinazolin-7-yl)-4-oxo-4H-chromen-8-yl)ethyl)amino)benzoic acid] | 0.76 µM | > 10 µM |  |
| Cc1cc([C@@H](C)Nc2ccccc2C(=O)O)c2oc(-c3ccc(Cn4cncn4)cc3)c(C)c(=O)c2c1 [Example 136, (R)-2-((1-(2-(4-((1H-1,2,4-triazol-1-yl)methyl)phenyl)-3,6-dimethyl-4-oxo-4H-chromen-8-yl)ethyl)amino)benzoic acid] | > 10 µM | > 10 µM |  |
| CC(=O)N1CCN(C(=O)c2ccc(-c3oc4c([C@@H](C)Nc5ccccc5C(=O)O)cc(C)cc4c(=O)c3C)cc2)CC1 [Example 139, (R)-2-((1-(2-(4-(4-acetylpiperazine-1-carbonyl)phenyl)-3,6-dimethyl-4-oxo-4H-chromen-8-yl)ethyl)amino)benzoic acid] | 1.04 µM | > 10 µM |  |
| CC(=O)N1CC(c2ccc(-c3cc(=O)c4cc(C)cc(C(C)Nc5ccccc5C(=O)O)c4o3)cc2)C1 (stereo not drawn) [Example 145, 2-((1-(2-(4-(1-acetylazetidin-3-yl)phenyl)-6-methyl-4-oxo-4H-chromen-8-yl)ethyl)amino)benzoic acid] | 1.6 µM | > 10 µM |  |

More lines, main results first:

| IC50 ([1]; T47D, 72 h) | IC50 [2] | Structure (SMILES) | IC50 [1] |
| --- | --- | --- | --- |
| 0.15 µM | > 10 µM | Cc1cc(C(C)Nc2ccccc2C(=O)O)c2oc(-c3ccc(N4CCOCC4)nc3)c(C)c(=O)c2c1 (stereo not drawn) [Example 81, 2-((1-(3,6-dimethyl-2-(6-morpholinopyridin-3-yl)-4-oxo-4H-chromen-8-yl)ethyl)amino)benzoic acid] |  |
| 0.13 µM | > 10 µM | Cc1cc(C(C)Nc2ccccc2C(=O)O)c2oc(-c3cc(F)c4nn(C)cc4c3)cc(=O)c2c1 (stereo not drawn) [Example 85, 2-((1-(2-(7-fluoro-2-methy-2H-indazol-5-yl)-6-methyl-4-oxo-4H-chromen-8-yl)ethyl)amino)benzoic acid] |  |
| 0.31 µM | > 10 µM | CCn1cc2cc(-c3cc(=O)c4cc(C)cc(C(C)Nc5ccccc5C(=O)O)c4o3)ccc2n1 (stereo not drawn) [Example 93, 2-((1-(2-(2-ethyl-2H-indazol-5-yl)-6-methyl-4-oxo-41H-chromen-8-yl)ethyl)amino)benzoic acid] |  |
| 0.29 µM | > 10 µM | CC(Nc1ccccc1C(=O)O)c1cc(F)cc2c(=O)cc(-c3ccc4nn(C)cc4c3)oc12 (stereo not drawn) [Example 101, 2-((1-(6-fluoro-2-(2-methyl-2H-indazol-5-yl)-4-oxo-4H-chromen-8-yl)ethyl)amino)benzoic acid] |  |
| 0.28 µM | > 10 µM | Cc1cc(C(C)Nc2ccccc2C(=O)O)c2oc(-c3cc4ccncc4[nH]3)cc(=O)c2c1 (stereo not drawn) [Example 117, 2-((1-(6-methyl-4-oxo-2-(1H-pyrrolo[2,3-c]pyridin-2-yl)-4H-chromen-8-yl)ethyl)amino)benzoic acid] |  |
| 0.18 µM | > 10 µM | Cc1cc([C@@H](C)Nc2ccccc2C(=O)O)c2oc(-c3ccc(CN4CCCC4=O)cc3)c(C)c(=O)c2c1 [Example 135, (R)-2-((1-(3,6-dimethyl-4-oxo-2-(4-((2-oxopyrrolidin-1-yl)methyl)phenyl)-4H-chromen-8-yl)ethyl)amino)benzoic acid] |  |
| 0.19 µM | > 10 µM | CC(=O)N1CCN(Cc2ccc(-c3oc4c([C@@H](C)Nc5ccccc5C(=O)O)cc(C)cc4c(=O)c3C)cc2)CC1 [Example 137, (R)-2-((1-(2-(4-((4-acetylpiperazin-1-yl)methyl)phenyl)-3,6-dimethyl-4-oxo-4H-chromen-8-yl)ethyl)amino)benzoic acid] |  |
| 0.083 µM | > 10 µM | CC(=O)N1CCN(C(C)c2ccc(-c3oc4c([C@@H](C)Nc5ccccc5C(=O)O)cc(C)cc4c(=O)c3C)cc2)CC1 (stereo partly drawn) [Example 138, 2-(((1R)-1-(2-(4-(1-(4-acetylpiperazin-1-yl)ethyl)phenyl)-3,6-dimethyl-4-oxo-4H-chromen-8-yl)ethyl)amino)benzoic acid] |  |
| 0.044 µM | > 10 µM | Cc1cc([C@@H](C)Nc2ccccc2C(=O)O)c2oc(-c3ccc(OCCN4CCOCC4)cc3)c(C)c(=O)c2c1 [Example 141, (R)-2-((1-(3,6-dimethyl-2-(4-(2-morpholinoethoxy)phenyl)-4-oxo-4H-chromen-8-yl)ethyl)amino)benzoic acid] |  |
| 0.043 µM | > 10 µM | Cc1cc([C@@H](C)Nc2ccccc2C(=O)O)c2oc(-c3ccc(CCN4CCOCC4)cc3)c(C)c(=O)c2c1 [Example 142, (R)-2-((1-(3,6-dimethyl-2-(4-(2-morpholinoethyl)phenyl)-4-oxo-4H-chromen-8-yl)ethyl)amino)benzoic acid] |  |
| 0.25 µM | > 10 µM | Cc1cc(C(C)Nc2ccccc2C(=O)O)c2oc(-c3ccc(-n4ccnc4)cc3)cc(=O)c2c1 (stereo not drawn) [Example 143, 2-((1-(2-(4-(1H-imidazol-1-yl)phenyl)-6-methyl-4-oxo-4H-chromen-8-yl)ethyl)amino)benzoic acid] |  |
| 0.14 µM | > 10 µM | Cc1cc(C(C)Nc2ccccc2C(=O)O)c2oc(-c3ccc(-c4cn(C)cn4)cc3)cc(=O)c2c1 (stereo not drawn) [Example 144, 2-((1-(6-methyl-2-(4-(1-methyl-1H-imidazol-4-yl)phenyl)-4-oxo-4H-chromen-8-yl)ethyl)amino)benzoic acid] |  |
